As a reminder, the AUC(0-inf) is the area under the concentration-time curve extrapolated to infinity. A word on the IC50: it is the concentration at which inhibition is half-maximal. The Cmax is the maximum level reached in the sampled fluid or tissue. As usually defined, the Tmax is the time from dosing to the highest level. As a reminder, the ED50 is the dose that gives a 50% effect, or the effect in half of the subjects. Usually inhibition stands for the drop in the measured response relative to a control, in per cent. Low values mean a weak effect, high ones a strong effect.

Two compounds from ChEMBL document CHEMBL3091359, “Potent oxazolidinone antibacterials with heteroaromatic C-ring substructure” (ACS Med Chem Lett, 2013) can be followed below.

One data set has as its system Haemophilus influenzae. As to the kind of experiment: Antibacterial activity against Haemophilus influenzae SR27914 clinical isolate assessed as […] by CLSI broth microdilution method. It is filed as functional. Background: In broth dilution the organism is exposed to a series of concentrations in liquid medium.
The test system of data set [1] is Streptococcus pneumoniae. As to the kind of experiment: Antibacterial activity against penicillin-resistant Streptococcus pneumoniae SR11031 clinical isolate assessed as […] by CLSI broth microdilution method. The data set is classed as functional.
For data set [2], the system named is Staphylococcus aureus. As to the kind of experiment: Potency index, ratio of linezolid ED50 to compound ED50 for methicillin-resistant Staphylococcus aureus SR3637 in po dosed JCL/ICR mouse systemic infection model. The data set is classed as functional.
Data set [3] can be described thus: AUC (infinity) in ICR mouse at 5.56 mg/kg, po by LC-MS/MS analysis. The data set is classed as ADME, organism-based. Further details: time infinity, dose 5.56 mg/kg, route oral. The following applies: plasma.
The test system of data set [4] is Staphylococcus aureus. Kind of data set: Antibacterial activity against Staphylococcus aureus SR20549 clinical isolate assessed as […] by CLSI broth microdilution method. The data set is classed as functional.
In the next data set the target is Cytochrome P450 3A4 (Homo sapiens, UniProt P08684). As to the kind of experiment: Inhibition of human CYP3A4 assessed as terfenadine hydroxylation after 20 mins by LC-MS/MS analysis. It is filed as ADME.
Another data set deals with T1, Cytochrome P450 1A2 (Homo sapiens, UniProt P05177).
T1 sequence (P05177 whole entry): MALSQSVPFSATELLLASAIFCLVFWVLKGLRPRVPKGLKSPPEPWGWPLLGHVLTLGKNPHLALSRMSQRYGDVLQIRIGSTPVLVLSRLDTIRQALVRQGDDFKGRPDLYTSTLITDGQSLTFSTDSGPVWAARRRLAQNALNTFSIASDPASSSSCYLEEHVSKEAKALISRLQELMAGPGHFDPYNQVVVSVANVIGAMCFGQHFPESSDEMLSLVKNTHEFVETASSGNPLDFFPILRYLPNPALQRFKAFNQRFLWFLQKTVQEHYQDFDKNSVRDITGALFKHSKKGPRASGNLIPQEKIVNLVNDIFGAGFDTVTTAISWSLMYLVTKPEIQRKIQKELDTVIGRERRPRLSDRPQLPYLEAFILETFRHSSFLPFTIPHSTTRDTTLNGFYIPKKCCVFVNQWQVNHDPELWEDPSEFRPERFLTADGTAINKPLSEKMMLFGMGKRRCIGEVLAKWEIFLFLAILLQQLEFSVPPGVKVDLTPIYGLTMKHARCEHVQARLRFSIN
Kind of data set: Inhibition of human CYP1A2 assessed as ethoxyresorufin O-deethylation after 20 mins by fluorescence plate reader. It is filed as ADME.

Data set [5] relates to Staphylococcus aureus. Kind of data set: Ratio of linezolid MIC to compound MIC for Staphylococcus aureus SR20549 clinical isolate. It is filed as functional.
Data set [6] in a line: Cmax in ICR mouse at 5.56 mg/kg, po by LC-MS/MS analysis. The following applies: in vivo. It is filed as ADME, organism-based. Further details: dose 5.56 mg/kg, route oral.
The nature of data set [7]: Tmax in ICR mouse at 5.56 mg/kg, po by LC-MS/MS analysis. The data set is classed as ADME, organism-based. Further details: dose 5.56 mg/kg, route oral. The settings on record: in vivo.
Data set [8] deals with Streptococcus pneumoniae. As to the kind of experiment: Antibacterial activity against Streptococcus pneumoniae SR26207 clinical isolate assessed as […] by CLSI broth microdilution method. The data set is classed as functional.
The subject of data set [9] is Staphylococcus aureus. As to the kind of experiment: Antibacterial activity against methicillin-resistant Staphylococcus aureus SR3637 clinical isolate assessed as […] by CLSI broth microdilution method. It is filed as functional.
For the next data set, the target named is Cytochrome P450 2C9 (Homo sapiens, UniProt P11712). Kind of data set: Inhibition of human CYP2C9 assessed as tolbutamide hydroxylation after 20 mins by LC-MS/MS analysis. The data set is classed as ADME.
The test system of data set [10] is Staphylococcus aureus. As to the kind of experiment: Antibacterial activity against methicillin-resistant Staphylococcus aureus SR3637 clinical isolate infected in po dosed JCL/ICR systemic infection model assessed as mortality administered after 1 hr of infection measured for 7 days. It is filed as functional.
Data set [11] has as its system Staphylococcus aureus. Kind of data set: Antibacterial activity against methicillin-resistant Staphylococcus aureus SR3637 clinical isolate infected in iv dosed JCL/ICR systemic infection model assessed as mortality administered after 1 hr of infection measured for 7 days. It is filed as functional.
The subject of data set [12] is Staphylococcus aureus. As to the kind of experiment: Antibacterial activity against Staphylococcus aureus Smith clinical isolate assessed as […] by CLSI broth microdilution method. The data set is classed as functional.
For a further data set, the target named is T2, MAO-B (Rattus norvegicus, UniProt P19643).
T2 sequence (P19643 whole entry): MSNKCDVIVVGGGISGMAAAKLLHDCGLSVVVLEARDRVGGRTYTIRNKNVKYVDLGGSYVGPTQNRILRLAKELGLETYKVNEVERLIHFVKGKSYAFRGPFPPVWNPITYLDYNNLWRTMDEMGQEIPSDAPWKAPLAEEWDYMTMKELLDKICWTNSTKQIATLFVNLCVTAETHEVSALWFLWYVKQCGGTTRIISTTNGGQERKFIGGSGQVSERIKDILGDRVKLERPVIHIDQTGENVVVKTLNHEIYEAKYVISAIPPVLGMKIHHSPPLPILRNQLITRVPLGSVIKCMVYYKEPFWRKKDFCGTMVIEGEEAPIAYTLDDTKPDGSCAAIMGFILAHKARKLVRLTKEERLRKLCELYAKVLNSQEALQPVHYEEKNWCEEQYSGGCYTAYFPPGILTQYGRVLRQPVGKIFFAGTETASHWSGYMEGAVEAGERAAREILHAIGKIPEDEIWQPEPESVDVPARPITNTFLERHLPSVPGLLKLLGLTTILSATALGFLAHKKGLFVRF
As to the kind of experiment: Inhibition of rat forebrain MAO-B using [14C]PEA as substrate at 30 uM preincubated for 20 mins followed by substrate addition measured after 10 mins by liquid scintillation counting analysis. The following applies: probe [14C]PEA.

A further data set relates to Enterococcus faecalis. Kind of data set: Antibacterial activity against Enterococcus faecalis SR1004 clinical isolate assessed as […] by CLSI broth microdilution method. It is filed as functional.
A further data set has as its system Enterococcus faecium. As to the kind of experiment: Antibacterial activity against Enterococcus faecium SR7940 clinical isolate assessed as […] by CLSI broth microdilution method. It is filed as functional.
For a further data set, the target named is Cytochrome P450 2D6 (Homo sapiens, UniProt P10635). Kind of data set: Inhibition of human CYP2D6 assessed as dextromethorphan O-demethylation after 20 mins by LC-MS/MS analysis. It is filed as ADME.
In a further data set the test system is Moraxella catarrhalis. Kind of data set: Antibacterial activity against Moraxella catarrhalis SR26840 clinical isolate assessed as […] by CLSI broth microdilution method. It is filed as functional.
Data set [13] relates to Staphylococcus aureus. Kind of data set: Ratio of linezolid MIC to compound MIC for Staphylococcus aureus Smith clinical isolate. It is filed as functional.
The test system of data set [14] is Staphylococcus aureus. Kind of data set: Antibacterial activity against linezolid-resistant Staphylococcus aureus NRS271 clinical isolate harboring G2576T mutation in peptidyl transferase center domain V of 23S rRNA gene assessed as […] by CLSI broth microdilution method. It is filed as functional.
The next data set concerns the target T3, MAO-A (Rattus norvegicus, UniProt P21396).
T3 sequence (P21396 whole entry): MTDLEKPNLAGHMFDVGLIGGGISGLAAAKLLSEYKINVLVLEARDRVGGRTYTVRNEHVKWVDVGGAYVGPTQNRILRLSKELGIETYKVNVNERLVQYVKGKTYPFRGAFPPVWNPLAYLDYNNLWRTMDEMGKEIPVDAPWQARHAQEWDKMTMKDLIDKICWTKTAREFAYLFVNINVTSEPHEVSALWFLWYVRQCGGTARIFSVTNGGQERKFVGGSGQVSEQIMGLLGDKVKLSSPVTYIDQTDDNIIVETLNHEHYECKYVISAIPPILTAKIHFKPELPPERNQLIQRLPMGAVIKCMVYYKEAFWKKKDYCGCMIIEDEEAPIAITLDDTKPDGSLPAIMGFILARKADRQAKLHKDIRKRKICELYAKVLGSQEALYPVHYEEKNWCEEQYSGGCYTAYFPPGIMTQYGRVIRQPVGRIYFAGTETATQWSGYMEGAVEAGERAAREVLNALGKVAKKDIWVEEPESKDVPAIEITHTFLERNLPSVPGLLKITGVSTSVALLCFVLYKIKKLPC
As to the kind of experiment: Inhibition of rat forebrain MAO-A using [14C]5-HT as substrate at 30 uM preincubated for 20 mins followed by substrate addition measured after 5 mins by liquid scintillation counting analysis. The settings on record: probe [14C]5-HT.

Data set [15] is described as follows: Tmax in ICR mouse at 67.7 mg/kg, po by LC-MS/MS analysis. It is filed as ADME, organism-based. Further details: dose 67.7 mg/kg, route oral. The settings on record: in vivo.
Data set [16] in a line: Cmax in ICR mouse at 67.7 mg/kg, po by LC-MS/MS analysis. It is filed as ADME, organism-based. Further details: dose 67.7 mg/kg, route oral. The settings on record: in vivo.
A short description of data set [17]: AUC (infinity) in ICR mouse at 67.7 mg/kg, po by LC-MS/MS analysis. It is filed as ADME, organism-based. Further details: time infinity, dose 67.7 mg/kg, route oral. The settings on record: plasma.

Converted amounts (≈) assume the structure as drawn.

Chain of Cytochrome P450 2C9 (P11712 whole entry): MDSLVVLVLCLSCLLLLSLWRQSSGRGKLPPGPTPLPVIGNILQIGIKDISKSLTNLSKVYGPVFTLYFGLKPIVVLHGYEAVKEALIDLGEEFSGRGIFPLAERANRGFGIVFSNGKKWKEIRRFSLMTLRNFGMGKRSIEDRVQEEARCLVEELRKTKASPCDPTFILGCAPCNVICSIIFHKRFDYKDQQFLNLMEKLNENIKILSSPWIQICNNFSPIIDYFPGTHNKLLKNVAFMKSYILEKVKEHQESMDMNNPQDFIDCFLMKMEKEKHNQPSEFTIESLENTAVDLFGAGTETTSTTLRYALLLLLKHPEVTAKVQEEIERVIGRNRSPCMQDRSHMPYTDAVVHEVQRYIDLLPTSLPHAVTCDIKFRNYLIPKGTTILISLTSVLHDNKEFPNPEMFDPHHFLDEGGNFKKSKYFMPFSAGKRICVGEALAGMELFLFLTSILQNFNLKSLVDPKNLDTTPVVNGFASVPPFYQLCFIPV
Chain of Cytochrome P450 2D6 (P10635 whole entry): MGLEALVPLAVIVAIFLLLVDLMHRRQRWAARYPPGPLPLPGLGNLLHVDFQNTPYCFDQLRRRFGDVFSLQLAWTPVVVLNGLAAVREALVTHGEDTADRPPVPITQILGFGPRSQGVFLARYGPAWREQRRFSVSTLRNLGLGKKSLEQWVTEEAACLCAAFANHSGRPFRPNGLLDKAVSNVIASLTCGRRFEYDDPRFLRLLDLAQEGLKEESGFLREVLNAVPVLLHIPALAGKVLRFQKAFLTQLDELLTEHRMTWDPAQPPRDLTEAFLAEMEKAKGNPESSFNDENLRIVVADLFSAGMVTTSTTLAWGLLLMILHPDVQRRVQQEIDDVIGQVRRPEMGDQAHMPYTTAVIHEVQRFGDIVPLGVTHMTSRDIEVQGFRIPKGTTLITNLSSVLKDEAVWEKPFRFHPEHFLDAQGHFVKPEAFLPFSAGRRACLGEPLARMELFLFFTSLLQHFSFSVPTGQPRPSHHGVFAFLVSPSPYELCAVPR
Chain of Cytochrome P450 3A4 (P08684 whole entry): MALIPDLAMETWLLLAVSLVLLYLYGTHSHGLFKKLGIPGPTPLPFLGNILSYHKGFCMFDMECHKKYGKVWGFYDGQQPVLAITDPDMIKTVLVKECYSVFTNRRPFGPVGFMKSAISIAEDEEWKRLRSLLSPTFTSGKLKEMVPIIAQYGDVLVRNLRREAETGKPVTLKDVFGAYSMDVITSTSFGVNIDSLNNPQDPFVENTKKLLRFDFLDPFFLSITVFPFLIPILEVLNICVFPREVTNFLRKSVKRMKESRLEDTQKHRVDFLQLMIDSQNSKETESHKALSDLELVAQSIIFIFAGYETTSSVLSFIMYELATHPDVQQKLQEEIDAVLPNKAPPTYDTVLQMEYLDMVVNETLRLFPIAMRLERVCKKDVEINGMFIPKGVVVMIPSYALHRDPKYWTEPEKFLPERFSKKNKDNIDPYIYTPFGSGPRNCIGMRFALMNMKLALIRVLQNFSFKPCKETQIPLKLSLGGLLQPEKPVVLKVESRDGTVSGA

Turning to `CC(=O)NC[C@H]1CN(c2ccc(-c3ccn4ncnc4c3)c(F)c2)C(=O)O1`, the MIC in the data set with Haemophilus influenzae was 4 µg/mL (≈ 10.8 µM); with Streptococcus pneumoniae [1], no more than 0.063 µg/mL; in the data set with Staphylococcus aureus [4], 0.25 µg/mL (≈ 0.677 µM); in the data set with Streptococcus pneumoniae [8], no more than 0.063 µg/mL; with Staphylococcus aureus [9] it was 0.25 µg/mL (≈ 0.677 µM); in the data set on Staphylococcus aureus [12], 0.5 µg/mL (≈ 1.35 µM). In addition, the MIC in the data set on Enterococcus faecalis was 0.25 µg/mL (≈ 0.677 µM); in the data set on Enterococcus faecium, 0.25 µg/mL (≈ 0.677 µM); with Moraxella catarrhalis, 4 µg/mL (≈ 10.8 µM); in the data set on Staphylococcus aureus [14], 4 µg/mL (≈ 10.8 µM). Also, in the data set on Staphylococcus aureus [2], the “Ratio ED50” value stood at 4. The AUC(0-inf) in data set [3] was 30900 ng·h/mL. For the same compound, the IC50 at Cytochrome P450 3A4, at Cytochrome P450 1A2, on Cytochrome P450 2C9 and on Cytochrome P450 2D6 was greater than 20 µM in each case. The Ratio in the data set on Staphylococcus aureus [5] worked out at 2; with Staphylococcus aureus [13], 4. In addition, the Cmax in [6] came to 4780 ng/mL. In addition, in data set [7], the Tmax amounted to 60 min. Further, the ED50 in the data set on Staphylococcus aureus [10] was 0.55 mg/kg; in the data set with Staphylococcus aureus [11], 0.34 mg/kg. On MAO-B, this compound returned an inhibition at 10 min, 30 µM of 78.2%. Besides, the inhibition at 5 min, 30 µM on MAO-A came out at 55.9%.

Take `CC(=O)NC[C@H]1CN(c2ccc(N3CCOCC3)c(F)c2)C(=O)O1` [LINEZOLID]: the MIC in the data set with Haemophilus influenzae came out at 16 µg/mL (≈ 47.4 µM); in the data set on Enterococcus faecium, 2 µg/mL (≈ 5.93 µM); in the data set on Moraxella catarrhalis, 8 µg/mL (≈ 23.7 µM); with Staphylococcus aureus [14], 32 µg/mL (≈ 94.9 µM). Also, the IC50 at Cytochrome P450 3A4, at Cytochrome P450 1A2, on Cytochrome P450 2C9 and at Cytochrome P450 2D6 was greater than 20 µM each time. For the same compound, the Tmax in data set [15] is 30 min. The compound further showed a Cmax in data set [16] of 37000 ng/mL. In addition, the ED50 in the data set on Staphylococcus aureus [10] turned out to be 1.98 mg/kg. The compound also displayed an AUC(0-inf) in data set [17] of 162000 ng·h/mL.
